# Where “and” joins values, the source holds several entries; their conditions need not be identical. Identical values can stand only once.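 Growth conditions: 96-well plates. Treatment: test compound, 48 hours, 5 concentrations. Analysis: linear interpolation between bracketing concentrations; unreached endpoints set to highest concentration. GI50 is the concentration that inhibits growth by half. Definition used: TGI = concentration required for complete inhibition of growth.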
# System: P388 leukemia
# Test: NCI tumour cell line growth inhibition, 48 h
compound,measurement,value
CC(C)CCCCCCCCCCCCC(=O)NCC(=O)NC1C(O)C(O)C(Nc2ncnc3nc[nH]c23)OC1C(O)CO (configuration not stated),GI50,5 nM
same,TGI,6.16 nM and 5.07 nM

# From PubChem BioAssay (NCI)
